# Literature values in US8216786B2, “Genetic polymorphisms associated with cardiovascular diseases, methods of detection and uses thereof” (Celera Corporation, priority 2008, dated 2012).
# Tested on: animal models and myocyte cultures
# Details: compared to lipophilic statins; cited from earlier work
smiles,measurement,value
CC[C@H](C)C(=O)O[C@H]1C[C@H](O)C=C2C=C[C@H](C)[C@H](CC[C@@H](O)C[C@@H](O)CC(=O)O)[C@H]21 [pravastatin],myopathic potential,low myopathic potential
